Laboratory results reported in patent US9732093B2, “FLAP modulators” (JANSSEN PHARMACEUTICA NV, priority 2013, dated 2017).
pIC50, pKi: −log10 of the molar value. Where a name gives a salt, the structure may show the parent alone. Read-outs that look alike come from different tables or passages of the source. Blank lines part the entries; values can stand above or below the compound they belong to.

Columns and labels:
human FLAP = human FLAP (Homo sapiens (Human), UniProt P20292); assay: FLAP binding assay (HTRF format)
Sequence of human FLAP (P20292 whole entry): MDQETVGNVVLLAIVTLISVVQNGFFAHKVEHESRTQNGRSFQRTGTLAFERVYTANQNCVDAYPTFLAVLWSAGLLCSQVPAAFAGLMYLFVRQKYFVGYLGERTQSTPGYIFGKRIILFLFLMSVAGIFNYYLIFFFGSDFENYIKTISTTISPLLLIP
Procedure, shortened: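 Samples were run in duplicate on each of two plates and the plate results averaged. Read-out is the HTRF signal ratio.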

[1] = test system: leukotriene pathway in human whole blood; assay: Human whole blood assay (LTB4 levels after A23187 stimulation); format: cell-based
Description: The ability of the compounds of the present invention to treat a FLAP-mediated disease and/or disorder, or associated symptoms or complications thereof, was determined using the following procedures. Binding assay data represent the average value obtained from two different assay plates, with samples run in duplicate on each plate. Human whole blood assay data represent a single replicate on an assay plate using whole blood from at least one healthy donor.
An in vitro cellular assay was performed using human whole blood collected in heparin-containing tubes, which was used to test the ability of compounds to modulate the leukotriene pathway in human whole blood. The blood was diluted 1:1 in RPMI medium, pre-incubated for 15 min at 37° Celsius with test compounds at various concentrations, and then stimulated with calcium ionophore, A23187 (7 μg/mL), for 30 min at 37° Celsius. The samples were then centrifuged and plasma was removed. The plasma was diluted in assay buffer and LTB4 levels were measured using a commercial kit (Enzo Life Sciences). The concentration of each compound that was required for half-maximal inhibition (modulation) of recombinant enzyme activity (IC50) was calculated by a 4-parameter equation using the program GraphPad Prism (GraphPad software).

[2] = human FLAP wild type membranes, HTRF format, Table 6 (additional runs)
[3] = human whole blood diluted 1:1 in RPMI, A23187 stimulation, Table 6 (additional runs)
[4] = human FLAP-containing membranes, HTRF ligand 25 nM, 2 h, average of two plates, duplicates, read-out: FLAP Binding wild type HTRF Ki
[5] = Homo sapiens, blood diluted 1:1 in RPMI, 15 min pre-incubation, A23187 7 μg/mL for 30 min at 37° Celsius, plasma LTB4

pKi (human FLAP; [2]): 7.83
pIC50 [1, 3]: 6.79
Compound: Nc1cnc(-c2ccc(C3CCCC3)c(Oc3ncccn3)c2F)cn1 [Example 337, 5-[4-Cyclopentyl-2-fluoro-3-(pyrimidin-2-yloxy)phenyl]pyrazin-2-amine]

pKi (human FLAP; [2]): 8.77
pIC50 [1, 3]: 7.02
Compound: Nc1cnc(-c2ccc(C3CCC3)c(Oc3ccc(N)nn3)c2F)cn1 [Example 338, 6-[3-(5-Aminopyrazin-2-yl)-6-cyclobutyl-2-fluorophenoxy]pyridazin-3-amine]

pKi (human FLAP; [2]): 6.97
pIC50 [1, 3]: 5.79
Compound: Nc1cnc(-c2ccc(C3CCC3)c(OCc3ncccn3)c2F)cn1 [Example 339, 5-[4-Cyclobutyl-2-fluoro-3-(pyrimidin-2-ylmethoxy)phenyl]pyrazin-2-amine]

pKi (human FLAP; [2]): 7.65
pIC50 [1, 3]: 6.91
Compound: Nc1cnc(-c2ccc(C3CCC3)c(OCc3ccc(-c4cnc(N)nc4)cc3)c2F)cn1 [Example 341, 5-(4-{[3-(5-Aminopyrazin-2-yl)-6-cyclobutyl-2-fluorophenoxy]methyl}phenyl)pyrimidin-2-amine]

pKi (human FLAP; [2]): 8.09
pIC50 [1, 3]: 7.58
Compound: Nc1cnc(-c2ccc(C3CCC3)c(OCc3ccc(-c4ccc(C(F)(F)F)cc4)cc3)c2F)cn1 [Example 342, 5-(4-Cyclobutyl-2-fluor-3-{[4-(trifluoromethyl)biphenyl-4-yl]methoxy}phenyl)pyrazin-2-amine]

pKi (human FLAP; [2]): 8.27
pIC50 [1, 3]: 7.84
Compound: Nc1ncc(-c2ccc(C3CCCCC3)c(Oc3ncccn3)c2F)cn1 [Example 343, 5-[4-Cyclohexyl-2-fluoro-3-(pyrimidin-2-yloxy)phenyl]pyrimidin-2-amine]

pKi (human FLAP; [2]): 7.85
pIC50 [1, 3]: 7.82
Compound: Nc1cnc(-c2ccc(C3CCCCC3)c(O)c2F)cn1 [Example 345, 3-(5-Aminopyrazin-2-yl)-6-cyclohexyl-2-fluorophenol]

pKi (human FLAP; [2]): 7.34
pIC50 [1, 3]: 6.75
Compound: Nc1cnc(-c2ccc(CC3CCCCC3)c(O)c2F)cn1 [Example 346, 3-(5-Aminopyrazin-2-yl)-6-(cyclohexylmethyl)-2-fluorophenol]

pKi (human FLAP; [2]): 7.32
pIC50 [1, 3]: 6.40
Compound: Nc1cnc(-c2ccc(C3CCC3)c(Oc3ccnc(N)c3)c2F)cn1 [Example 347, 5-{3-[(2-Aminopyridin-4-yl)oxy]-4-cyclobutyl-2-fluorophenyl}pyrazin-2-amine]

pKi (human FLAP; [2]): 7.88
pIC50 [1, 3]: 6.83
Compound: Nc1cnc(-c2ccc(C3CCC3)c(Oc3cncc(N)n3)c2F)cn1 [Example 348, 5-{3-[(6-Aminopyrazin-2-yl)oxy]-4-cyclobutyl-2-fluorophenyl}pyrazin-2-amine]

pKi (human FLAP; [2]): 7.51
pIC50 [1, 3]: < 6.00
Compound: Nc1cnc(-c2ccc(C3CCC3)c(Oc3cncnc3)c2F)cn1 [Example 349, 5-[4-Cyclobutyl-2-fluoro-3-(pyrimidin-5-yloxy)phenyl]pyrazin-2-amine]

pKi (human FLAP; [2]): 7.28
pIC50 [1, 3]: 6.35
Compound: Nc1cnnc(Oc2c(C3CCC3)ccc(-c3cnc(N)cn3)c2F)c1 [Example 350, 6-[3-(5-Aminopyrazin-2-yl)-6-cyclobutyl-2-fluorophenoxy]pyridazin-4-amine]

pKi (human FLAP; [2]): 7.26
pIC50 [1, 3]: 6.91
Compound: CC(C)(C)c1ccc(-c2cnc3[nH]ccc3c2)c(F)c1Oc1ncccn1 [Example 351, 5-[4-tert-Butyl-2-fluoro-3-(pyrimidin-2-yloxy)phenyl]-1H-pyrrolo[2.3-b]pyridine]

pKi (human FLAP; [2]): 7.00
pIC50 [1, 5]: 5.96
pIC50 [1, 3]: 5.96
Compound: Nc1ncc(-c2ccc(C3CCC3)c(O)c2F)cn1 [Intermediate E, 3-(2-Aminopyrimidin-5-yl)-6-cyclobutyl-2-fluorophenol]

pKi (human FLAP; [4]): 7.11
pIC50 [1, 5]: 6.24
pIC50 [1, 3]: 6.24
Compound: CC(C)(C)c1ccc(-c2cnc(N)cn2)c(F)c1O [Intermediate G, 3-(5-Aminopyrazin-2-yl)-6-tert-butyl-2-fluorophenol]

pKi (human FLAP; [4]): 7.14
pIC50 [1, 5]: 6.54
pIC50 [1, 3]: 6.54
Compound: CC(C)(C)c1ccc(-c2cnc(N)nc2)c(F)c1O [Intermediate H, 3-(2-Aminopyrimidin-5-yl)-6-tert-butyl-2-fluorophenol]

The next lines start with the compound.

Compound: 6-Cyclobutyl-2-fluoro-3-(5H-pyrrolo[2,3-b]pyrazin-2-yl)phenol [Example 176]
pKi (human FLAP; [2]): ~7.12
pIC50 ([1]; blood diluted 1:1 in RPMI, 15 min pre-incubation, A23187 7 μg/mL for 30 min at 37° Celsius, plasma LTB4): 6.05
pIC50 [1, 3]: 5.89

Compound: Nc1cnc(-c2ccc(C3CCC3)c(OCc3cccc(C(F)(F)F)c3)c2F)cn1 [Compound 2, 5-(4-Cyclobutyl-2-fluoro-3-{[3-(trifluoromethyl)benzyl]oxy}phenyl)pyrazin-2-amine]
pKi (human FLAP; [2]): 7.06
pIC50 [1, 3]: 6.05

Compound: Nc1cnc(-c2ccc(C3CCC3)c(Oc3cc(N)ncn3)c2F)cn1 [Example 136, 6-[3-(5-Aminopyrazin-2-yl)-6-cyclobutyl-2-fluorophenoxy]pyrimidin-4-amine]
pKi (human FLAP; [2]): 8.41
pIC50 [1, 3]: 7.25

Compound: Fc1c(-c2cnc3[nH]ccc3n2)ccc(C2CCC2)c1OCc1ccccc1 [Example 178, 2-[3-(Benzyloxy)-4-cyclobutyl-2-fluorophenyl]-5H-pyrrolo[2.3-b]pyrazine]
pKi (human FLAP; [4]): 6.45
pIC50 [1, 3]: 6.11

Compound: CC(C)(C)c1ccc(-c2cnc(N)nc2)c(F)c1Oc1ncccn1 [Example 207, 5-[4-tert-Butyl-2-fluoro-3-(pyrimidin-2-yloxy)phenyl]pyrimidin-2-amine]
pKi (human FLAP; [2]): 7.29
pIC50 [1, 3]: 7.11

Compound: Fc1c(-c2cnc3c(c2)OCCN3)ccc(C2CCC2)c1Oc1ncccn1 [Example 225, 7-(4-Cyclobutyl-2-fluoro-3-(pyrimidin-2-yloxy)phenyl)-3,4-dihydro-2H-pyrido[3,2-b][1,4]oxazine]
pKi (human FLAP; [2]): 7.63
pIC50 [1, 3]: 6.54

Compound: N#Cc1cccnc1COc1c(C2CCC2)ccc(-c2cnc(N)cn2)c1F [Example 286, 2-{[3-(5-Aminopyrazin-2-yl)-6-cyclobutyl-2-fluorophenoxy]methyl)}pyridine-3-carbonitrile trifluoroacetic acid salt]
pKi (human FLAP; [2]): 7.09
pIC50 [1, 3]: 5.93

Compound: Cc1nc(COc2c(C3CCC3)ccc(-c3cnc(N)cn3)c2F)cs1 [Example 287, 5-{4-Cyclobutyl-2-fluoro-3-[(2-methyl-1,3-thiazol-4-yl)methoxy]phenyl}pyrazin-2-amine trifluoroacetic acid salt]
pKi (human FLAP; [2]): 7.75
pIC50 [1, 3]: < 6.00

Compound: Nc1cnc(-c2ccc(C3CCC3)c(OCCNc3ccncn3)c2F)cn1 [Example 297, N-{2-[3-(5-Aminopyrazin-2-yl)-6-cyclobutyl-2-fluorophenoxy]ethyl}pyrimidin-4-amine]
pIC50 [1, 3]: 6.67

Compound: Cc1ccc(-c2cnc(N)cn2)c(F)c1Oc1ncccn1 [Example 314, 5-[2-Fluoro-4-methyl-3-(pyrimidin-2-yloxy)phenyl]pyrazin-2-amine]
pIC50 [1, 3]: < 5.00

Compound: Nc1ncc(-c2ccc(C3CCCC3)c(Oc3ncccn3)c2F)cn1 [Example 334, 5-[4-Cyclopentyl-2-fluoro-3-(pyrimidin-2-yloxy)phenyl]pyrimidin-2-amine]
pKi (human FLAP; [2]): 8.34
pIC50 [1, 3]: 7.28

Compound: Nc1ccnc(Oc2c(C3CCCC3)ccc(-c3cnc(N)nc3)c2F)n1 [Example 335, 5-{3-[(4-Aminopyrimidin-2-yl)oxy]-4-cyclopentyl-2-fluorophenyl}pyrimidin-2-amine]
pKi (human FLAP; [2]): 8.44
pIC50 [1, 3]: 7.43

Compound: Nc1cnc(-c2ccc(C3CCCC3)c(Oc3nccc(N)n3)c2F)cn1 [Example 336, 2-[3-(5-Aminopyrazin-2-yl)-6-cyclopentyl-2-fluorophenoxy]pyrimidin-4-amine]
pKi (human FLAP; [2]): 8.41
pIC50 [1, 3]: 7.62
